Patent US9605064B2, “Methods and compositions for treatment of skin disorders” (AbbVie Biotechnology Ltd, priority 2006, dated 2017)
Where “and” joins values, the source holds several entries; their conditions need not be identical. Identical values can stand only once. Marks after values point to notes of the source that are not given here.

Test system: patients with moderate to severe chronic plaque psoriasis
Test: PASI response, Phase II 12-week placebo-controlled trial with 48-week extension
Assay type: in vivo, human
Details: for Number of Patients Who Qualified for Dosage Escalation: 40 mg eow (n = 12); for PASI 50 (% patients) After Dose Escalation / PASI 75 (% patients) After Dose Escalation / PASI 90 (% patients) After Dose Escalation: escalation from eow to weekly dosing
Source text: Efficacy outcome measures included PASI and PGA.
The two primary clinical outcome measures used in this study were the psoriasis area and severity index (PASI) and the physician's global assessment (PGA). PASI improvement of greater than or equal to 75% (used as an endpoint in psoriasis clinical trials) at week 12 was the primary efficacy outcome measure for this study. PASI is a composite index indicating severity for three main signs of psoriatic plaques (erythema, scaling, and thickness), weighted by the amount of coverage of these plaques in four main body areas, i.e., head, trunk, upper extremities, and lower extremities. PASI scores, which range from 0-72, with higher scores indicating greater severity, were assessed at screening, baseline, week 1, week 2, week 4, week 8, week 12/early termination, and follow-up.
Skin and safety outcomes were assessed up to Week 60.
Analytical methods included the following: • Analyses of clinical data were performed on a modified intention-to-treat population (ITT). […] Patients whose dosages were increased on or after Week 24 were considered non-responders; • Patients with similar percentage PASI improvement across treatment arms were pooled into four strata: PASI<50, PASI 50-74, PASI 75-99, and PASI 100; and • Week-60 distribution of DLQI scores, mean DLQI scores, and mean change in DLQI from Week 0-60 were calculated within each stratum.
Frequently used as an endpoint in psoriasis clinical trials, the PASI [25] was the primary efficacy outcome in this trial. PASI is a composite index indicating the severity of the three main signs of psoriatic plaques (i.e., erythema, scaling, and thickness) and is weighted by the amount of coverage of these plaques in the four main body areas (head, trunk, upper extremities, and lower extremities). PASI scores range from 0-72, with higher scores indicating greater disease severity. PASI was assessed at screening and baseline, at Weeks 1, 2, 4, 8, and 12/Early Termination, and at the final follow-up visit.
At week 12, placebo patients received an 80-mg loading dose, then 40 mg every other week. […] Patients who receive the rescue therapy were considered non-responders in this analysis.

[1] = 40 mg eow, Week 60, modified ITT, NRI
[2] = 40 mg weekly, Week 60, modified ITT, NRI
[3] = (placebo→eow+eow) group, week 60, observed analysis
[4] = Efficacy at Weeks 24-60 (n = 22)
[5] = Week 12, adalimumab 40 mg eow, modified ITT, NRI
[6] = Week 12, adalimumab 40 mg weekly, modified ITT, NRI
[7] = Week 24, adalimumab 40 mg eow, modified ITT, NRI
[8] = Week 24, adalimumab 40 mg weekly, modified ITT, NRI
[9] = Week 24, placebo/adalimumab 40 mg eow (adalimumab from Week 12), modified ITT, NRI
[10] = Week 36, adalimumab 40 mg eow, modified ITT, NRI
[11] = Week 36, adalimumab 40 mg weekly, modified ITT, NRI
[12] = Week 36, placebo/adalimumab 40 mg eow (adalimumab from Week 12), modified ITT, NRI
[13] = Week 60, adalimumab 40 mg eow, modified ITT, NRI

Adalimumab: a human anti-TNF mAb, described in U.S. Pat. No. 6,090,382 as D2E7 (HUMIRA, Abbott Laboratories)
Number of Patients Who Qualified for Dosage Escalation (Week 24): 9
Number of Patients Who Qualified for Dosage Escalation (Week 28): 1
Number of Patients Who Qualified for Dosage Escalation (Week 32): 0
Number of Patients Who Qualified for Dosage Escalation (Week 44): 1
Number of Patients Who Qualified for Dosage Escalation (Week 52): 0
Number of Patients Who Qualified for Dosage Escalation (Week 60): 1
patients with sustained, clinically significant improvement (40 mg eow dosing): ~80%
Overall PASI 75 response rate (40 mg eow, Week 12, modified ITT, NRI): 53* % of Patients
Overall PASI 75 response rate (40 mg eow, Week 24, modified ITT, NRI): 64 % of Patients
Overall PASI 75 response rate (40 mg eow, Week 36, modified ITT, NRI): 64 % of Patients
Overall PASI 75 response rate [1]: 58 % of Patients and 56 % of Patients
PASI 50 response rate [1]: 64 % Patients
PASI 90 response rate [1]: 33 % Patients
PASI 100 response rate [1]: 16 % Patients
Overall PASI 75 response rate (40 mg eow, Week 60, modified ITT, NRI, listed as adalimumab): 58 % of Patients
mean percentage PASI improvement (40 mg every other week dosage of placebo/adalimumab, week 60): 69%
mean percentage PASI improvement (40 mg of adalimumab alone, on a weekly basis, week 60): 69%
Overall PASI 75 response rate (40 mg weekly, Week 12, modified ITT, NRI): 80* % of Patients
Overall PASI 75 response rate (40 mg weekly, Week 24, modified ITT, NRI): 72 % of Patients
Overall PASI 75 response rate (40 mg weekly, Week 36, modified ITT, NRI): 68 % of Patients
Overall PASI 75 response rate [2]: 64 % of Patients
PASI 50 response rate [2]: 66 % Patients
PASI 90 response rate [2]: 48 % Patients
PASI 100 response rate [2]: 26 % Patients
mean percentage PASI improvement (40 mg weekly, week 60): 84%
PASI 75-99 response rate [3]: 38
PASI 100 response rate [3]: 17
PASI 75 Response at Week 60, patients eligible for dose escalation (Adalimumab 40 mg eow (n = 9)): 22% (2/9)
PASI 50 (% patients) After Dose Escalation (Efficacy at Week 60 (n = 22)): 36%
PASI 75 (% patients) After Dose Escalation (Efficacy at Week 60 (n = 22)): 18%
PASI 90 (% patients) After Dose Escalation (Efficacy at Week 60 (n = 22)): 0%
PASI 50 (% patients) After Dose Escalation [4]: 55%
PASI 75 (% patients) After Dose Escalation [4]: 23%
PASI 90 (% patients) After Dose Escalation [4]: 5%
PASI 75 Response at Week 60, patients eligible for dose escalation (Placebo/Adalimumab 40 mg eow (n = 13)): 15% (2/13)
Percentages of Patients with > PASI 75 Response (Week 12, 40 mg eow (Table 79)): 53%
Percentages of Patients with > PASI 75 Response (Week 12, 40 mg weekly (Table 79)): 80%
Percentage of patients who achieved PASI 100 (Week 12, adalimumab 40 mg eow, NRI): 11* %
PASI 50 (% patients) [5]: 76%
Percentage of patients who achieved PASI 75 [5]: 53%
Percentage of patients who achieved PASI 90 [5]: 24%
Percentage of patients who achieved PASI 100 (Week 12, adalimumab 40 mg weekly, NRI): 26* %
PASI 50 (% patients) [6]: 88%
Percentage of patients who achieved PASI 75 [6]: 80%
Percentage of patients who achieved PASI 90 [6]: 48%
Patients Eligible for Dose Escalation (<PASI 50 response), number (Week 24, Adalimumab 40 mg eow (n = 9)): 5
Patients Eligible for Dose Escalation (<PASI 50 response), number (Week 24, Placebo/Adalimumab 40 mg eow (n = 13)): 5
Percentage of patients who achieved PASI 100 (Week 24, adalimumab 40 mg eow, NRI): 13%
Percentage of patients who achieved PASI 75 [7]: 64%
Percentage of patients who achieved PASI 90 [7]: 42%
Percentage of patients who achieved PASI 100 (Week 24, adalimumab 40 mg weekly, NRI): 24%
Percentage of patients who achieved PASI 75 [8]: 72%
Percentage of patients who achieved PASI 90 [8]: 62%
Percentage of patients who achieved PASI 100 (Week 24, placebo/adalimumab 40 mg eow (adalimumab from Week 12), NRI): 11%
Percentage of patients who achieved PASI 75 [9]: 55%
Percentage of patients who achieved PASI 90 [9]: 32%
Patients Eligible for Dose Escalation (<PASI 50 response), number (Week 28, Adalimumab 40 mg eow (n = 9)): 1
Patients Eligible for Dose Escalation (<PASI 50 response), number (Week 28, Placebo/Adalimumab 40 mg eow (n = 13)): 2
Patients Eligible for Dose Escalation (<PASI 50 response), number (Week 32, Adalimumab 40 mg eow (n = 9)): 0
Patients Eligible for Dose Escalation (<PASI 50 response), number (Week 32, Placebo/Adalimumab 40 mg eow (n = 13)): 2
Percentage of patients who achieved PASI 100 (Week 36, adalimumab 40 mg eow, NRI): 22%
Percentage of patients who achieved PASI 75 [10]: 64%
Percentage of patients who achieved PASI 90 [10]: 49%
Percentage of patients who achieved PASI 100 (Week 36, adalimumab 40 mg weekly, NRI): 36%
Percentage of patients who achieved PASI 75 [11]: 68%
Percentage of patients who achieved PASI 90 [11]: 58%
Percentage of patients who achieved PASI 100 (Week 36, placebo/adalimumab 40 mg eow (adalimumab from Week 12), NRI): 19%
Percentage of patients who achieved PASI 75 [12]: 62%
Percentage of patients who achieved PASI 90 [12]: 43%
Patients Eligible for Dose Escalation (<PASI 50 response), number (Week 44, Adalimumab 40 mg eow (n = 9)): 1
Patients Eligible for Dose Escalation (<PASI 50 response), number (Week 44, Placebo/Adalimumab 40 mg eow (n = 13)): 1
Patients Eligible for Dose Escalation (<PASI 50 response), number (Week 52, Adalimumab 40 mg eow (n = 9)): 0
Patients Eligible for Dose Escalation (<PASI 50 response), number (Week 52, Placebo/Adalimumab 40 mg eow (n = 13)): 3
Patients Eligible for Dose Escalation (<PASI 50 response), number (Week 60, Adalimumab 40 mg eow (n = 9)): 2
Patients Eligible for Dose Escalation (<PASI 50 response), number (Week 60, Placebo/Adalimumab 40 mg eow (n = 13)): 0
Percentage of patients who achieved PASI 100 (Week 60, adalimumab 40 mg eow, NRI): 16%
PASI 50 (% patients) [13]: 67%
Percentage of patients who achieved PASI 75 [13]: 58%
Percentage of patients who achieved PASI 90 [13]: 33%
Percentage of patients who achieved PASI 100 (Week 60, adalimumab 40 mg weekly, NRI): 26%
